Assay results taken from patent publication US20060058374A1, “Urotensin II receptor agents” (priority 2002, published 2006).
pKi: −log10 of the molar value.

Columns and labels:
Format in all cases: cell-based
Acetylcholine m5 = target: T1, Acetylcholine m5 (Homo sapiens, UniProt P08912); experiment: R-SAT assay, Acetylcholine m5
T1 construct: expressed in transfected cells; host or cells: NIH3T3
T1 sequence (P08912 1-532): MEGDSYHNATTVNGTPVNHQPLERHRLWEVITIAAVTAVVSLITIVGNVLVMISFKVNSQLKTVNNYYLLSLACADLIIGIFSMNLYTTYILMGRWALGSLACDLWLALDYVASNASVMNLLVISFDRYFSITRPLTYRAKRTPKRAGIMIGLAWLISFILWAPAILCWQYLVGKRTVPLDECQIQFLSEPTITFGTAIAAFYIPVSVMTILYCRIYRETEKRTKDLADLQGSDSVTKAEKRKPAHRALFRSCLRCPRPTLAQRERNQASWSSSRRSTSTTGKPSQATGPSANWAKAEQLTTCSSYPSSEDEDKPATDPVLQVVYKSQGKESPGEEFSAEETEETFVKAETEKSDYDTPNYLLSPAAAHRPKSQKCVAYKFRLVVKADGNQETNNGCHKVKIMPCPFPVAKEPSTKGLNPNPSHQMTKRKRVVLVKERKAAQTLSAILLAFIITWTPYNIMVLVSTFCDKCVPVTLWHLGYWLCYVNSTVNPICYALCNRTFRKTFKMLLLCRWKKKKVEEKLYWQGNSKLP
Experimental: (§1) The test compound of Formula III was screened according to a modification of the method described in U.S. Pat. No. 5,912,312. The method, herein referred to as Method 1, consists of the following:
(§2) Receptor Selection and Amplification (R-SAT) Assays.
(§3) R-SAT assays were performed with minor modifications from that previously described (6). Briefly, NIH3T3 cells were grown in tissue culture treated rollerbottles to 40-50% confluence. Cells were transfected for 12-16 hours with plasmid DNAs using superfect (Qiagen Inc.) as per manufacture's protocols. R-SAT's were generally performed with 10 μg/rollerbottle of receptor and 50 μg/rollerbottle of Beta-galactosidase plasmid DNA. All receptor and G-protein constructs used were in the PSI mammalian expression vector (Promega Inc.). The transfected cells were then trypsinized and frozen in DMEM containing 10% DMSO. Frozen cells were later thawed, plated at 10,000-40,000 cells per well of a 96 ½ area plate that contained drug. Cells were then grown in a humidified atmosphere with 5% ambient CO2 for five days. Media was then removed from the plates and marker gene activity was measured by the addition of the beta-galactosidase substrate ONPG (in PBS with 5% NP-40). The resulting colorimetric reaction was measured in a spectrophotometric plate reader (Titertek Inc.) at […].
(§4) EC50, IC50 and Ki are presented as the negative of the calculated potency in Molar.

Histamine H1 = target: T2, Histamine H1 (Homo sapiens, UniProt P35367); experiment: R-SAT assay, Histamine H1; conditions: competitive antagonist mode; percent maximal inhibition relative to control standard compound
T2 construct: expressed in transfected cells; host or cells: NIH3T3 cells, receptor plasmid in PSI mammalian expression vector (Promega)
Experimental: as §1, §2
as §3, with “Cells were then grown in a humidified atmosphere with 5% ambient CO2 for five days.” left out
as §4

Beta Adrenergic 2 = target: T3, Beta Adrenergic 2 (Homo sapiens, UniProt P07550); experiment: R-SAT assay, Beta Adrenergic 2
T3 construct: expressed in transfected cells; host or cells: NIH3T3
Experimental: as §1, §2
as §3, with “Cells were then grown in a humidified atmosphere with 5% ambient CO2 for five days.” left out
as §4

CCKa = target: T4, CCKa (Homo sapiens, UniProt P32238); experiment: R-SAT assay, CCKa; conditions: percent maximal activation relative to control compound
T4 construct: expressed in transfected cells; host or cells: NIH3T3
Experimental: as §1, §2
as §3, with “Cells were then grown in a humidified atmosphere with 5% ambient CO2 for five days.” left out
as §4

Histamine H2 = target: T5, Histamine H2 (Homo sapiens, UniProt P25021); experiment: R-SAT assay, Histamine H2
T5 construct: expressed in transfected cells; host or cells: NIH3T3
Experimental: as §1, §2
as §3, with “Cells were then grown in a humidified atmosphere with 5% ambient CO2 for five days.” left out
as §4

Serotonin 5HT2c = target: T6, Serotonin 5HT2c (Homo sapiens, UniProt P28335); experiment: R-SAT assay, Serotonin 5HT2c; conditions: inverse agonist mode; percent maximal inhibition relative to repression of basal activity by a control standard compound
T6 construct: expressed in transfected cells; host or cells: NIH3T3
Experimental: as §1, §2
as §3, with “Cells were then grown in a humidified atmosphere with 5% ambient CO2 for five days.” left out
as §4

CRF2a = target: T7, CRF2a (Homo sapiens, UniProt Q13324); experiment: R-SAT assay, CRF2a; conditions: percent maximal activation relative to control compound
T7 construct: expressed in transfected cells; host or cells: NIH3T3
Experimental: as §1, §2
as §3, with “Cells were then grown in a humidified atmosphere with 5% ambient CO2 for five days.” left out
as §4

k opioid = target: T8, k opioid (Homo sapiens, UniProt P41145); experiment: R-SAT assay, k opioid; conditions: percent maximal activation relative to control compound
T8 construct: expressed in transfected cells; host or cells: NIH3T3
Experimental: as §1, §2
as §3, with “Cells were then grown in a humidified atmosphere with 5% ambient CO2 for five days.” left out
as §4

Dopamine D1 = target: T9, Dopamine D1 (Homo sapiens, UniProt P21728); experiment: R-SAT assay, Dopamine D1
T9 construct: expressed in transfected cells; host or cells: NIH3T3
Experimental: as §1, §2
as §3, with “Cells were then grown in a humidified atmosphere with 5% ambient CO2 for five days.” left out
as §4

Serotonin 5HT7 = target: T10, Serotonin 5HT7 (Homo sapiens, UniProt P34969); experiment: R-SAT assay, Serotonin 5HT7; conditions: percent maximal activation relative to control compound
T10 construct: expressed in transfected cells; host or cells: NIH3T3
Experimental: as §1, §2
as §3, with “Cells were then grown in a humidified atmosphere with 5% ambient CO2 for five days.” left out
as §4

Acetylcholine m1 = target: T11, Acetylcholine m1 (Homo sapiens, UniProt P11229); experiment: R-SAT assay, Acetylcholine m1
T11 construct: expressed in transfected cells; host or cells: NIH3T3
Experimental: as §1, §2
as §3, with “Cells were then grown in a humidified atmosphere with 5% ambient CO2 for five days.” left out
as §4

Beta Adrenergic 1 = target: T12, Beta Adrenergic 1 (Homo sapiens, UniProt P08588); experiment: R-SAT assay, Beta Adrenergic 1; conditions: percent maximal activation relative to control compound
T12 construct: expressed in transfected cells; host or cells: NIH3T3
Experimental: as §1, §2
as §3, with “Cells were then grown in a humidified atmosphere with 5% ambient CO2 for five days.” left out
as §4

CRF1 = target: T13, CRF1 (Homo sapiens, UniProt P34998); experiment: R-SAT assay, CRF1; conditions: percent maximal activation relative to control compound
T13 construct: expressed in transfected cells; host or cells: NIH3T3
Experimental: as §1, §2
as §3, with “Cells were then grown in a humidified atmosphere with 5% ambient CO2 for five days.” left out
as §4

SST5 = target: T14, SST5 (Homo sapiens, UniProt P35346); experiment: R-SAT assay, SST5; conditions: percent maximal activation relative to control compound
T14 construct: expressed in transfected cells; host or cells: NIH3T3
Experimental: as §1, §2
as §3, with “Cells were then grown in a humidified atmosphere with 5% ambient CO2 for five days.” left out
as §4

CRF2b = target: T15, CRF2b (Homo sapiens, UniProt Q13324); experiment: R-SAT assay, CRF2b; conditions: percent maximal activation relative to control compound
T15 construct: expressed in transfected cells; host or cells: NIH3T3
Experimental: as §1, §2
as §3, with “Cells were then grown in a humidified atmosphere with 5% ambient CO2 for five days.” left out
as §4

Dopamine D2 = target: T16, Dopamine D2 (Homo sapiens, UniProt P14416); experiment: R-SAT assay, Dopamine D2
T16 construct: expressed in transfected cells; host or cells: NIH3T3
Experimental: as §1, §2
as §3, with “Cells were then grown in a humidified atmosphere with 5% ambient CO2 for five days.” left out
as §4

Acetylcholine m3 = target: T17, Acetylcholine m3 (Homo sapiens, UniProt P20309); experiment: R-SAT assay, Acetylcholine m3
T17 construct: expressed in transfected cells; host or cells: NIH3T3
Experimental: as §1, §2
as §3, with “Cells were then grown in a humidified atmosphere with 5% ambient CO2 for five days.” left out
as §4

Dopamine D5 = target: T18, Dopamine D5 (Homo sapiens, UniProt P21918); experiment: R-SAT assay, Dopamine D5
T18 construct: expressed in transfected cells; host or cells: NIH3T3
Experimental: as §1, §2
as §3, with “Cells were then grown in a humidified atmosphere with 5% ambient CO2 for five days.” left out
as §4

Serotonin 5HT2b = target: T19, Serotonin 5HT2b (Homo sapiens, UniProt P41595); experiment: R-SAT assay, Serotonin 5HT2b
T19 construct: expressed in transfected cells; host or cells: NIH3T3
Experimental: as §1, §2, §3, §4

[1] = competitive antagonist mode, percent maximal inhibition relative to control standard compound
[2] = percent maximal activation relative to control compound
[3] = inverse agonist mode, percent maximal inhibition relative to repression of basal activity by a control standard compound

T19 sequence (P41595 whole entry): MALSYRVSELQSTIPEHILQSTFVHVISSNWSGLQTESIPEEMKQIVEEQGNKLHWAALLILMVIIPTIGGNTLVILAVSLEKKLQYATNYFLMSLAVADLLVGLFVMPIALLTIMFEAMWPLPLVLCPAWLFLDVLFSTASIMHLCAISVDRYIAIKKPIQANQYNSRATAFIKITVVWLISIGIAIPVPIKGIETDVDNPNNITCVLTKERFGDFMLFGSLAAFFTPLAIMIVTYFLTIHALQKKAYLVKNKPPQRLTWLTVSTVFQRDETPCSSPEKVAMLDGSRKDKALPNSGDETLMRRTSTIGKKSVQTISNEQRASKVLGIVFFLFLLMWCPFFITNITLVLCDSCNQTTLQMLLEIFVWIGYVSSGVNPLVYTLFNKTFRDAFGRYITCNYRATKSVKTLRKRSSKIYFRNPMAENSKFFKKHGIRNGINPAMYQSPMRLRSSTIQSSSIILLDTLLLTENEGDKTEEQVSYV
T11 sequence (P11229 whole entry): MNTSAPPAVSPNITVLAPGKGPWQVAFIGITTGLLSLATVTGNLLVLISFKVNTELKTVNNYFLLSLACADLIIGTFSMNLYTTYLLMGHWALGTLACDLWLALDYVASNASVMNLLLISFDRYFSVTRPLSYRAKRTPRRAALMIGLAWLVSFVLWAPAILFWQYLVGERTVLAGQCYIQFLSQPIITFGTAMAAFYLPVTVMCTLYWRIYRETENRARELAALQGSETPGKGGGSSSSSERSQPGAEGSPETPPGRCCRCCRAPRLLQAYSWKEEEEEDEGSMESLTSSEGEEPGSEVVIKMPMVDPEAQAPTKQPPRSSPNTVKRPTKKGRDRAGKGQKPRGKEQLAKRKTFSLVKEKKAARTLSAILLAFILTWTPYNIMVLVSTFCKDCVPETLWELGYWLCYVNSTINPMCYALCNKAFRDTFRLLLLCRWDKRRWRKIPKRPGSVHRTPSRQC
T18 sequence (P21918 whole entry): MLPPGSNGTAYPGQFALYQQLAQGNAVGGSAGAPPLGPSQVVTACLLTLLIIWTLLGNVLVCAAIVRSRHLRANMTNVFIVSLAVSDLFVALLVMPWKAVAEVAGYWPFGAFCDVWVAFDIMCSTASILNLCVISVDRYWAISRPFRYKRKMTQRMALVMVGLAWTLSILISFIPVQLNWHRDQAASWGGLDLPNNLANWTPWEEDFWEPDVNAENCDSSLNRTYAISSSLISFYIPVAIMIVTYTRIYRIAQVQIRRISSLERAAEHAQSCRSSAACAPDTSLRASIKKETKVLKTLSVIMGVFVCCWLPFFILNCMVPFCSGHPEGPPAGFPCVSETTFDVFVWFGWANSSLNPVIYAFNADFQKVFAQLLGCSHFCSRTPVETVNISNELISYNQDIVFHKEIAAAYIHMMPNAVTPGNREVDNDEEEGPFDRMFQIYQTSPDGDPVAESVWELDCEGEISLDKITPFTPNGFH
T9 sequence (P21728 whole entry): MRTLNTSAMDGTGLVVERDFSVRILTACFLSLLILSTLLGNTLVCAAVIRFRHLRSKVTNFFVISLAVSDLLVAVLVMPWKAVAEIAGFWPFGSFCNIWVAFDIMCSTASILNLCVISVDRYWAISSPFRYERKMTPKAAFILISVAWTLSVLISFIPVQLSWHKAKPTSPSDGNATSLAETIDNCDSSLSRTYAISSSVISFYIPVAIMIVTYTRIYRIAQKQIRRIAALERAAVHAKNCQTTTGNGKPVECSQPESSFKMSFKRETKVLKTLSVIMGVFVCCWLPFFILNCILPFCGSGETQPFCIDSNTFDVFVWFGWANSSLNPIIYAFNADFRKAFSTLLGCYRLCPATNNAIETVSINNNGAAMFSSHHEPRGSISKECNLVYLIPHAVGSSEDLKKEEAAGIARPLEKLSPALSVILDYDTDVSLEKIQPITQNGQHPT
T5 sequence (P25021 whole entry): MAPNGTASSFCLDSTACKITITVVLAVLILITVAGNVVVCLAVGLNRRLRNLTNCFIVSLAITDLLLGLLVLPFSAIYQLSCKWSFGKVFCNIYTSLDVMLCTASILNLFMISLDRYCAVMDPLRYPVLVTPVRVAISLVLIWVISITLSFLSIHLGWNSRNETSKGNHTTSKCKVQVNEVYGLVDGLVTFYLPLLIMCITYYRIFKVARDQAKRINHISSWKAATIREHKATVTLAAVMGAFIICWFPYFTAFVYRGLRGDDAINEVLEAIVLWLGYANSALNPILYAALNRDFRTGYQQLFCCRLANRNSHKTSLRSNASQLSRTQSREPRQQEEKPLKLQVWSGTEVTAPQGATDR
T16 sequence (P14416 whole entry): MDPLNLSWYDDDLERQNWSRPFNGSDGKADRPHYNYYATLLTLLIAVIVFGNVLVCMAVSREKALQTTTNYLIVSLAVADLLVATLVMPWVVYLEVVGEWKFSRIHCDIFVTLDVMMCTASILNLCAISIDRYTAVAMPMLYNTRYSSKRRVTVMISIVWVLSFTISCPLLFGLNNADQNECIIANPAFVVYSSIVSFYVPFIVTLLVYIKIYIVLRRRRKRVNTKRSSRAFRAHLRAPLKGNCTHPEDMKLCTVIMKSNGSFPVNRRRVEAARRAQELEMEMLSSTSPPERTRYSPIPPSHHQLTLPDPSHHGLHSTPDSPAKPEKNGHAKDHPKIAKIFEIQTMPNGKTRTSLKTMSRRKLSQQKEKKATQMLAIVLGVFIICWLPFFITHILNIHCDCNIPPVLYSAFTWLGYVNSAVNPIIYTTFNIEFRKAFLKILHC
T3 sequence (P07550 whole entry): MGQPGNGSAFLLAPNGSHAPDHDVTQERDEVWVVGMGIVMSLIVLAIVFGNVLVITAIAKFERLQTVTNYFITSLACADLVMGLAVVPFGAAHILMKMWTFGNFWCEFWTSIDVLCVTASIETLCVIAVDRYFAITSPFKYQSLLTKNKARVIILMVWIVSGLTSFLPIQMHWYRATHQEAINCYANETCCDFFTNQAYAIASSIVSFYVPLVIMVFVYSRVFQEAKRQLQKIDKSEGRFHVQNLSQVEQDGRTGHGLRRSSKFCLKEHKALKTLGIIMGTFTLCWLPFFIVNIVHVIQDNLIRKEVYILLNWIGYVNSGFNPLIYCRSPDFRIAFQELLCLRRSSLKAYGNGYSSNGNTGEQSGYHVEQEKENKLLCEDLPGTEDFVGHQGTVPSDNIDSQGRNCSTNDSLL
T17 sequence (P20309 whole entry): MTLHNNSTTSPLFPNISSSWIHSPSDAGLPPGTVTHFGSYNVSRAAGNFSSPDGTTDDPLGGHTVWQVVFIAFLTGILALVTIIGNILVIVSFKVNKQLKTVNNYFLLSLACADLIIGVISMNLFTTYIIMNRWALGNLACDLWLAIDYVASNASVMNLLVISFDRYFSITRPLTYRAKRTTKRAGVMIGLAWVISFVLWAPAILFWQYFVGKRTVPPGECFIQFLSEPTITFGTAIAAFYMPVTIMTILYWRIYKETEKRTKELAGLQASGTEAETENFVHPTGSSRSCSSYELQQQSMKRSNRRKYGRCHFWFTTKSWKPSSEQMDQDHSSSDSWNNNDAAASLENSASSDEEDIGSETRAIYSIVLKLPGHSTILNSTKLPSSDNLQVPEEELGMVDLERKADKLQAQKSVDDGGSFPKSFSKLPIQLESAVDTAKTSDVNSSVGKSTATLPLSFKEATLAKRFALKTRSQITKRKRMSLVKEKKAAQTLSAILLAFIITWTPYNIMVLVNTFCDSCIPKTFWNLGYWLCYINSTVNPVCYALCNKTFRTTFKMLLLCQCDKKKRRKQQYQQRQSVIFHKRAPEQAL
T4 sequence (P32238 whole entry): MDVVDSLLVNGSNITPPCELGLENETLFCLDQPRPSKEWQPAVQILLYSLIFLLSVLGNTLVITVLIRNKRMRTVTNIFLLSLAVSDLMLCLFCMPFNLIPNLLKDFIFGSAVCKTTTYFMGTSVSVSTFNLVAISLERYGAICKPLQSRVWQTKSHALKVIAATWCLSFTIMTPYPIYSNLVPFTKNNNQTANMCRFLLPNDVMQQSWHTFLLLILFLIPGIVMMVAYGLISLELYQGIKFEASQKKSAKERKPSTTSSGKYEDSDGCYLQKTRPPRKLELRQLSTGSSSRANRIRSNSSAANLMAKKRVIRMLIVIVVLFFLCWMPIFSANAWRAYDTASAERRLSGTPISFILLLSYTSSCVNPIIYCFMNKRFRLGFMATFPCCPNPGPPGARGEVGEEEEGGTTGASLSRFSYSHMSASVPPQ
T13 sequence (P34998 24-415): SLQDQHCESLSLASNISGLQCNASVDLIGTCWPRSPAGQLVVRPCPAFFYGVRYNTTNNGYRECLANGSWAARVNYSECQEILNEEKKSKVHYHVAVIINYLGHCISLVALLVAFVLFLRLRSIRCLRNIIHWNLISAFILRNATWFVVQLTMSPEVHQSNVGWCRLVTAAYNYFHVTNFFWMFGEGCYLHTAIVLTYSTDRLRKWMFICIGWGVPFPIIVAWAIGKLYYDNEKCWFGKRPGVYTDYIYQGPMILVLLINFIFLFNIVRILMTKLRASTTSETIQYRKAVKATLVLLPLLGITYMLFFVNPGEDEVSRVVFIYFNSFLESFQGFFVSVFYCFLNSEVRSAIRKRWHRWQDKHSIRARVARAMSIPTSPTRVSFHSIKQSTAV
T12 sequence (P08588 whole entry): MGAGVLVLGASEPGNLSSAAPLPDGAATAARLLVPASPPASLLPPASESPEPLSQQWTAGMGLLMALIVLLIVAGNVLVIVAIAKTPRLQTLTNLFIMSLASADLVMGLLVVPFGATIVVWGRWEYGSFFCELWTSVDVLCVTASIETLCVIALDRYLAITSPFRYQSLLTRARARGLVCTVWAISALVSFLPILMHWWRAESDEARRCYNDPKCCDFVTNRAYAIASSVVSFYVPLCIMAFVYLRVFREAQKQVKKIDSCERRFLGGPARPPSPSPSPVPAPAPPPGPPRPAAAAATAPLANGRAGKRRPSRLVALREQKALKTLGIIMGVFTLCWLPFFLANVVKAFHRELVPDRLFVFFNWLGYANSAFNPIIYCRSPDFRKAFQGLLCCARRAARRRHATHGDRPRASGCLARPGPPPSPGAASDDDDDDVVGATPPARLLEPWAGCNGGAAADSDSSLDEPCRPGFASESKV

CN(C)CCC1(c2ccc(Cl)cc2)Cc2ccccc2C(=O)O1 (stereo not drawn) [Formula III]
pKi (Acetylcholine m5; competitive antagonist mode, negative of the calculated potency in Molar): < 5.65 | Competitive Antagonist % Inh (Acetylcholine m5; [1]): 55% | Agonist % Eff (Acetylcholine m5; [2]): 3.6% | Competitive Antagonist % Inh (Histamine H1): 0% | Competitive Antagonist % Inh (Beta Adrenergic 2; [1]): 0% | Agonist % Eff (Beta Adrenergic 2; [2]): 0% | Agonist % Eff (CCKa): 0% | Inverse Agonist % Inh (Histamine H2; [3]): 0% | Agonist % Eff (Histamine H2; [2]): 0% | Inverse Agonist % Inh (Serotonin 5HT2c): 0% | Agonist % Eff (CRF2a): 0% | Agonist % Eff (k opioid): 0% | Competitive Antagonist % Inh (Dopamine D1; [1]): 0% | Agonist % Eff (Dopamine D1; [2]): 0% | Agonist % Eff (Serotonin 5HT7): 0% | Competitive Antagonist % Inh (Acetylcholine m1; [1]): 13% | Agonist % Eff (Acetylcholine m1; [2]): 3% | Agonist % Eff (Beta Adrenergic 1): 0% | Agonist % Eff (CRF1): 0% | Agonist % Eff (SST5): 0% | Agonist % Eff (CRF2b): 0% | Competitive Antagonist % Inh (Dopamine D2; [1]): 13.2% | Agonist % Eff (Dopamine D2; [2]): 13.6% | Competitive Antagonist % Inh (Acetylcholine m3; [1]): 28% | Agonist % Eff (Acetylcholine m3; [2]): 1.8% | Competitive Antagonist % Inh (Dopamine D5; [1]): 0% | Agonist % Eff (Dopamine D5; [2]): 0% | Competitive Antagonist % Inh (Serotonin 5HT2b; [1]): 0% | Inverse Agonist % Inh (Serotonin 5HT2b; [3]): 0% | Agonist % Eff (Serotonin 5HT2b; [2]): 0%
